Experimental data: the supplement of paper PMC7661543
± gives the standard deviation of the averaged measurements.

Columns and labels:
Assay in all cases: relative cell number vs DMSO control (72 h) (% of DMSO); higher = less growth inhibition (more cells)
Conditions in all cases: sgRNA knockout: sgNT
BT-20 = test system: BT-20
Experimental: (§1)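 QMAP-Seq: a pool of 5 breast cancer cell lines (ZR-75-1, SKBR3, HCC-38, MDA-MB-231, BT-20), each carrying 12 doxycycline-inducible Cas9 sgRNA perturbations (11 knockouts plus non-targeting sgNT), was treated with compounds for 72 h at four 10-fold doses (10 nM-10 uM or 1 nM-1 uM range). Barcodes were amplified and sequenced, and cell number was interpolated from 293T spike-in standard curves. The result is expressed as % of the median of DMSO wells. Two biological replicates.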

HCC-38 = test system: HCC-38
Experimental: as §1

MDA-MB-231 = test system: MDA-MB-231
Experimental: as §1

SKBR3 = test system: SKBR3
Experimental: as §1

ZR-75-1 = test system: ZR-75-1
Experimental: as §1

Compound | relative cell number (BT-20; 10 nM) | relative cell number (BT-20; 100 nM) | relative cell number (BT-20; 1000 nM) | relative cell number (BT-20; 10000 nM) | relative cell number (HCC-38; 10 nM) | relative cell number (HCC-38; 100 nM) | relative cell number (HCC-38; 1000 nM) | relative cell number (HCC-38; 10000 nM) | relative cell number (MDA-MB-231; 10 nM) | relative cell number (MDA-MB-231; 100 nM) | relative cell number (MDA-MB-231; 1000 nM) | relative cell number (MDA-MB-231; 10000 nM) | relative cell number (SKBR3; 10 nM) | relative cell number (SKBR3; 100 nM) | relative cell number (SKBR3; 1000 nM) | relative cell number (SKBR3; 10000 nM) | relative cell number (ZR-75-1; 10 nM) | relative cell number (ZR-75-1; 100 nM) | relative cell number (ZR-75-1; 1000 nM) | relative cell number (ZR-75-1; 10000 nM) | relative cell number (BT-20; 1 nM) | relative cell number (HCC-38; 1 nM) | relative cell number (MDA-MB-231; 1 nM) | relative cell number (SKBR3; 1 nM) | relative cell number (ZR-75-1; 1 nM)
O=P1(NCCCl)OCCCN1CCCl (stereo not given) [Ifosfamide] | 71.6 ± 2.8 | 89.6 ± 16 | 109.5 ± 0.23 | 84.7 ± 16 | 107 ± 4.6 | 96 ± 20 | 105 ± 14 | 100 ± 11 | 75.5 ± 8 | 95.4 ± 25 | 103 ± 13 | 95.5 ± 5.4 | 74.2 ± 5.4 | 74.6 ± 24 | 82.8 ± 25 | 71.9 ± 38 | 69.6 ± 31 | 107 ± 35 | 79.1 ± 40 | 85.6 ± 8.3 |  |  |  |  | 
O=C(/C=C/c1ccc(O)cc1)c1ccc(O)cc1O [Isoliquiritigenin] | 113 ± 12 | 95.4 ± 25 | 80.4 ± 11 | 94.9 ± 1.9 | 96.1 ± 6.6 | 92.5 ± 6.5 | 96.7 ± 11 | 86.5 ± 9.8 | 87.3 ± 22 | 75.5 ± 23 | 87 ± 3 | 88 ± 26 | 83.1 ± 20 | 109 ± 30 | 82.7 ± 16 | 68.9 ± 8.6 | 120 ± 22 | 88 ± 10 | 99.8 ± 30 | 83.9 ± 5.5 |  |  |  |  | 
CCn1c(=O)c2c(nc(/C=C/c3ccc(OC)c(OC)c3)n2C)n(CC)c1=O [Istradefylline] | 109 ± 12 | 104 ± 5.7 | 94.8 ± 12 | 106 ± 8.2 | 88.28 ± 0.69 | 99.3 ± 24 | 93.3 ± 8.3 | 106 ± 2.4 | 86 ± 1.8 | 146 ± 30 | 93.8 ± 5.8 | 105 ± 43 | 80.5 ± 18 | 84.2 ± 5.3 | 99.5 ± 23 | 112 ± 15 | 128 ± 37 | 114 ± 3.4 | 110 ± 7.6 | 94.9 ± 19 |  |  |  |  | 
O=C(c1ccc(/C=C/c2n[nH]c3ccccc23)cc1)N1CCNCC1 [KW2449] | 109 ± 15 | 89.6 ± 4.7 | 113 ± 20 | 79.4 ± 13 | 88 ± 8 | 87.64 ± 0.15 | 81 ± 5.1 | 42.2 ± 5.9 | 103 ± 14 | 116 ± 35 | 78.79 ± 0.17 | 35.4 ± 8.4 | 69 ± 16 | 72.7 ± 10 | 104 ± 5.3 | 73.1 ± 49 | 75.6 ± 8.1 | 104 ± 3.9 | 48.8 ± 12 | 56 ± 10 |  |  |  |  | 
O=C(Cc1ccc(-c2ccc(OCCN3CCOCC3)cc2)cn1)NCc1ccccc1 [KX2391] | 127 ± 31 | 36.5 ± 7.8 | 33.3 ± 7 | 31.8 ± 10 | 139 ± 16 | 24.4 ± 0.93 | 24.1 ± 1.9 | 30.8 ± 3.4 | 108 ± 56 | 30.3 ± 9.2 | 18 ± 2.3 | 19.78 ± 0.15 | 91.5 ± 17 | 17.8 ± 2 | 8.71 ± 3 | 10.3 ± 2.5 | 132 ± 43 | 24.8 ± 2.5 | 24.6 ± 4.9 | 17.8 ± 8.4 |  |  |  |  | 
COc1cc(C(=O)N2CCC(N3CCN(C)CC3)CC2)ccc1Nc1ncc2c(n1)N(C)c1ccccc1C(=O)N2C [LRRK2IN1] | 116 ± 14 | 93.7 ± 7.9 | 93.8 ± 15 | 38.2 ± 4 | 100 ± 8.9 | 84.8 ± 7 | 67.3 ± 4 | 42.4 ± 1.1 | 123 ± 3.5 | 96.6 ± 1.3 | 44.2 ± 7.9 | 16 ± 2.8 | 111 ± 44 | 70.9 ± 6 | 71 ± 31 | 32.9 ± 13 | 106 ± 7 | 152 ± 59 | 69.4 ± 3 | 19.1 ± 5.2 |  |  |  |  | 
CS(=O)(=O)CCNCc1ccc(-c2ccc3ncnc(Nc4ccc(OCc5cccc(F)c5)c(Cl)c4)c3c2)o1 [Lapatinib] | 96.3 ± 16 | 84.7 ± 12 | 78.7 ± 9.5 | 77 ± 4.7 | 97.5 ± 7 | 87 ± 6.9 | 89.7 ± 7.5 | 60.2 ± 1.2 | 120 ± 15 | 90 ± 36 | 83.6 ± 3 | 38.2 ± 8.8 | 77.6 ± 11 | 73.9 ± 0.55 | 64.9 ± 19 | 16.3 ± 2.1 | 112 ± 32 | 63.6 ± 13 | 86.8 ± 17 | 33.4 ± 10 |  |  |  |  | 
COc1cc2nccc(Oc3ccc(NC(=O)NC4CC4)c(Cl)c3)c2cc1C(N)=O [Lenvatinib] | 94.9 ± 21 | 97.5 ± 14 | 128 ± 7.1 | 93.5 ± 36 | 95.3 ± 5.8 | 96.8 ± 4.3 | 101 ± 33 | 68.4 ± 10 | 94.7 ± 34 | 122 ± 7.1 | 114 ± 15 | 86.5 ± 25 | 111 ± 9.8 | 92.6 ± 8.6 | 85.9 ± 42 | 94.1 ± 35 | 84.1 ± 11 | 92.2 ± 22 | 108 ± 20 | 90.8 ± 15 |  |  |  |  | 
N#Cc1ccc(C(c2ccc(C#N)cc2)n2cncn2)cc1 [Letrozole] | 89.6 ± 27 | 95.8 ± 6.8 | 104 ± 16 |  | 107 ± 13 | 111 ± 12 | 95 ± 12 |  | 109 ± 10 | 77.2 ± 7.3 | 106 ± 11 |  | 97.5 ± 23 | 110 ± 22 | 121.06 ± 0.081 |  | 93.6 ± 24 | 106 ± 30 | 60.6 ± 7.9 |  | 83 ± 35 | 94.5 ± 6.1 | 84.7 ± 9.7 | 87.5 ± 18 | 109 ± 14
Cc1ccc(F)c(NC(=O)Nc2ccc(-c3cccc4[nH]nc(N)c34)cc2)c1 [Linifanib] | 73.8 ± 4.6 | 105 ± 23 | 89.1 ± 1 | 60.5 ± 3.3 | 94.4 ± 14 | 77.6 ± 10 | 118 ± 15 | 55.4 ± 4.2 | 70.5 ± 23 | 112 ± 30 | 100 ± 22 | 22.1 ± 0.58 | 88.8 ± 1.8 | 107 ± 3.3 | 121 ± 7.9 | 40 ± 0.42 | 86.4 ± 18 | 97.6 ± 3.9 | 93.6 ± 40 | 33.4 ± 4.6 |  |  |  |  | 
C[C@]1(O)C[C@@H](c2nc(-c3ccc4ccc(-c5ccccc5)nc4c3)c3c(N)nccn32)C1 [Linsitinib] | 111 ± 19 | 121 ± 28 | 79.2 ± 3.2 | 102 ± 11 | 95.4 ± 8 | 99.1 ± 12 | 78 ± 3.6 | 70.1 ± 4.4 | 116 ± 10 | 104 ± 14 | 65.3 ± 20 | 64.9 ± 13 | 94.7 ± 12 | 104 ± 18 | 78.71 ± 0.77 | 78.1 ± 11 | 90.6 ± 23 | 95.7 ± 6.6 | 70.9 ± 15 | 65.7 ± 3.7 |  |  |  |  | 
Nc1nc(OCc2cc(Br)cs2)c2[nH]cnc2n1 [Lomeguatrib] | 101 ± 13 | 115 ± 3.5 | 89.5 ± 11 | 93.7 ± 13 | 98.2 ± 6.3 | 88.5 ± 10 | 89.6 ± 22 | 81.9 ± 8.3 | 117 ± 22 | 125 ± 8.7 | 127.8 ± 0.46 | 86.4 ± 4.3 | 111 ± 1.7 | 68.1 ± 13 | 104 ± 14 | 90.4 ± 27 | 103 ± 42 | 127 ± 3.4 | 78.2 ± 47 | 74.8 ± 5.2 |  |  |  |  | 
